The target in the assay is ALP in normal human articular chondrocytes (NHACs). The assay can be described thus: Alkaline Phosphatase (ALP) activity assay (staining and quantitation) in NHACs, prevention of chondrocyte hypertrophy. Particulars: human IL-1 beta 10 ng/mL, 12 days; for IC50: Fast Blue RR staining, high content imaging, read-out: ALP in NHAC IC50; for ALP in NHAC (% Efficacy) / Emax: value in parentheses; for Emax: read-out: ALP in NHAC (% Efficacy). It is filed as cell-based. Here is the method: The compounds of the present invention were evaluated in the Alkaline Phosphatase (ALP) activity assay to determine the ability of the compounds to prevent chondrocyte hypertrophy in normal human articular chondrocytes (NHACs).
Normal human articular chondrocytes (NHACs) were purchased from PromoCell (Heidelberg, Germany) and grown in Chondrocyte Growth Medium (CGM; Lonza, Walkersville, Md.).
NHACs were expanded in Chondrocyte Growth Medium (CGM) from Lonza until they reached a 60-80% confluency. To initiate differentiation, 7,500 cells were plated/well with indicated test compound dose in 384-well Cell Carrier Ultra plates (Perkin Elmer) with DMEM (SH30022—HyClone) containing 10% FBS (35-015-CV—Corning), 1% Pen/Strep antibiotics (SV30010—HyClone), and 1% Normocin (50 mg/mL—InvivoGen). Cells with test compounds were incubated at 37° C., 5% CO2 for 5 hours and then added human IL-1 beta (AF-200-1B—Peprotech) to each well at a final concentration of 10 ng/mL and incubated at 37° C., 5% CO2 for 12 days.
To detect the presence of hypertrophic cells, NHACs were fixed with 4% paraformaldehyde and Hoechst 33342 (Invitrogen) dye for 30 minutes, rinsed in PBS, then stained with Fast Blue RR Salt (F0500—Sigma) with Naphthol AS-MX Phosphate Alkaline Solution, 0.25% (855—Sigma-Aldrich).
The staining was imaged by fluorescent microscopy, using the 561 nm wavelength, and/or quantified by high content imaging with the Image press Confocal (Molecular Devices, Sunnyvale, Calif.). Data analyses were performed with a customized multiwavelength cell-scoring application.

Where two headings read alike, the source gives them in different places. Bounds are passed on as bounds.

As for `N#Cc1ccc(C(F)(F)F)cc1NC(=O)[C@@H]1[C@@H](c2cccc(C(F)(F)F)c2)[C@H]2O[C@@H]1C[C@@H]2O` (single isomer, unassigned) [Example 48b, (1R,2R,3S,4R,5S)—N-(2-cyano-5-(trifluoromethyl)phenyl)-5-hydroxy-3-(3-(trifluoromethyl)phenyl)-7-oxabicyclo[2.2.1]heptane-2-carboxamide or (1S,2S,3R,4S,5R)—N-(2-cyano-5-(trifluoromethyl)phenyl)-5-hydroxy-3-(3-(trifluoromethyl)phenyl)-7-oxabicyclo[2.2.1]heptane-2-carboxamide], the IC50 turned out to be 1.9 µM and the “ALP in NHAC (% Efficacy)” value stood at 98%.

Take `O=C(Nc1cccc(C(F)(F)F)c1)[C@@H]1[C@@H](c2ccc(C(F)(F)F)nc2)[C@H]2O[C@@H]1C[C@@H]2O` (racemic) [Example 82, rac-(1R,2R,3S,4R,5S)-5-hydroxy-N-(3-(trifluoromethyl)phenyl)-3-(6-(trifluoromethyl)pyridin-3-yl)-7-oxabicyclo[2.2.1]heptane-2-carboxamide]: where the note is “Chondrocyte, 288 h”, the IC50 was found to be 4.6 µM and the Emax was found to be 78%.

As for `COc1cc([C@@H]2[C@@H]3O[C@@H](C[C@H]3O)[C@H]2C(=O)Nc2cc(C(F)(F)F)ccc2C#N)ccn1` (single isomer, unassigned) [Example 78a, (1R,2R,3S,4R,5)-N-(2-cyano-5-(trifluoromethyl)phenyl)-5-hydroxy-3-(2-methoxypyridin-4-yl)-7-oxabicyclo[2.2.1]heptane-2-carboxamide or (1S,2S,3R,4S,5R)—N-(2-cyano-5-(trifluoromethyl)phenyl)-5-hydroxy-3-(2-methoxypyridin-4-yl)-7-oxabicyclo[2.2.1]heptane-2-carboxamide], the IC50 was determined as 1.1 µM and the “ALP in NHAC (% Efficacy)” value is given as 100%.

Turning to `COc1cc([C@H]2[C@H]3O[C@H](C[C@@H]3O)[C@@H]2C(=O)Nc2cc(C)cc(C(F)(F)F)c2)ccn1` (racemic) [Example 69, rac-(1R,2R,3S,4R,5S)-5-hydroxy-3-(2-methoxypyridin-4-yl)-N-(3-methyl-5-(trifluoromethylphenyl)-7-oxabicyclo[2.2.1]heptane-2-carboxamide], where the note is “Chondrocyte, 288 h”, the IC50 stood at 25 µM and the Emax is 29%.

For `Cn1nc(C(F)(F)F)cc1[C@H]1[C@H]2O[C@H](C[C@@H]2O)[C@@H]1C(=O)Nc1cccc(C(F)(F)F)c1` (racemic) [Example 61, rac-(1R,2R,3S,4R,5S)-5-hydroxy-3-(1-methyl-3-(trifluoromethyl)-1H-pyrazol-5-yl)-N-(3-(trifluoromethyl)phenyl)-7-oxabicyclo[2.2.1]heptane-2-carboxamide], for the setting “Chondrocyte, 288 h”, the IC50 was found to be 21 µM and the Emax stood at 46%.

As to `Cn1cc([C@H]2[C@H]3O[C@H](C[C@@H]3O)[C@@H]2C(=O)Nc2cc(C(F)(F)F)c(Cl)cn2)c(C(F)(F)F)n1` (single isomer, unassigned) [Example 36a, (1R 2R,3S,4R,5S)—N-(5-chloro-4-(trifluoromethyl)pyridin-2-yl)-5-hydroxy-3-(1-methyl-3-(trifluoromethyl)-1H-pyrazol-4-yl)-7-oxabicyclo[2.2.1]heptane-2-carboxamide or (1S,2S,3R,4S,5R)—N-(5-chloro-4-(trifluoromethyl)pyridin-2-yl)-5-hydroxy-3-(1-methyl-3-(trifluoromethyl)-1H-pyrazol-4-yl)-7-oxabicyclo[2.2.1]heptane-2-carboxamide], the IC50 was determined as 9.4 µM and the “ALP in NHAC (% Efficacy)” value came to 95%.

As to `CC(C)n1cc([C@H]2[C@H]3O[C@H](C[C@@H]3O)[C@@H]2C(=O)Nc2cc(C(F)(F)F)ccc2F)c(C(F)(F)F)n1` (racemic) [Example 85, rac-(1R,2R,3S,4R,5S)—N-(2-fluoro-5-(trifluoromethyl)phenyl)-5-hydroxy-3-(1-isopropyl-3-(trifluoromethyl-1H-pyrazol-4-yl-7-oxabicyclo[2.2.1]heptane-2-carboxamide], where the note is “Chondrocyte, 288 h”, the IC50 was above 30 µM and the Emax worked out at 44%.

Take `Cn1nc(C(F)(F)F)cc1[C@H]1[C@H]2O[C@H](C[C@@H]2O)[C@@H]1C(=O)Nc1cc(C(F)(F)F)ccc1F` (racemic) [Example 75, rac-(1R,2R,3S,4R,5S)—N-(2-fluoro-S-trifluoromethyl)phenyl)-5-hydroxy-3-(1-methyl-3-(trifluoromethyl)-1H-pyrazol-5-yl)-7-oxabicyclo[2.2.1]heptane-2-carboxamide]: for the setting “Chondrocyte, 288 h”, the IC50 was above 30 µM and the Emax was found to be 46%.

As to `Cn1cc([C@H]2[C@H]3O[C@H](C[C@@H]3O)[C@@H]2C(=O)Nc2cccc(C(F)(F)F)c2F)c(C(F)(F)F)n1` (racemic) [Example 57, rac-(1R,2R,3S,4R,5S)—N-(2-fluoro-3-(trifluoromethyl)phenyl)-5-hydroxy-3-(1-methyl-3-(trifluoromethyl-1H-pyrazol-4-yl)-7-oxabicyclo[2.2.1]heptane-2-carboxamide], where the note is “Chondrocyte, 288 h”, the IC50 was above 30 µM and the Emax amounted to 50%.

In the case of `O=C(Nc1cc(F)cc(C(F)(F)F)c1)[C@@H]1[C@@H](c2cccc(C(F)(F)F)c2)[C@H]2O[C@@H]1C[C@@H]2O` (racemic) [Example 17, rac-(1R,2R,3S,4R,5S)—N-(3-fluoro-5-(trifluoromethyl)phenyl)-5-hydroxy-3-(3-(trifluoromethyl)phenyl)-7-oxabicyclo[2.2.1]heptane-2-carboxamide], for the setting “Chondrocyte, 288 h”, the IC50 stood at 13 µM and the Emax was determined as 105%.

With `CC(C)n1cc([C@H]2[C@H]3O[C@H](C[C@@H]3O)[C@@H]2C(=O)Nc2cc(C(F)(F)F)ccn2)c(C(F)(F)F)n1` (racemic) [Example 86, rac-(1R,2R,3S,4R,5S)-5-hydroxy-3-(1-isopropyl-3-(trifluoromethyl)-1H-pyrazol-4-yl)-N-(4-(trifluoromethyl)pyridin-2-yl)-7-oxabicyclo[2.2.1]heptane-2-carboxamide], where the note is “Chondrocyte, 288 h”, the IC50 was 11 µM and the Emax stood at 83%.

Regarding `CCOc1cc(C(F)(F)F)cc(NC(=O)[C@@H]2[C@@H](c3cn(C)nc3C(F)(F)F)[C@H]3O[C@@H]2C[C@@H]3O)n1` (racemic) [Example 39, rac-(1R,2R,3S,4R,5S)—N-(6-ethoxy-4-(trifluoromethyl)pyridin-2-yl)-5-hydroxy-3-(1-methyl-3-(trifluoromethyl)-1H-pyrazol-4-yl)-7-oxabicyclo[2.2.1]heptane-2-carboxamide], for the setting “Chondrocyte, 288 h”, the IC50 was determined as 4 µM and the Emax came out at 64%.

Take `O=C(Nc1ccc(C(F)(F)F)cc1)[C@@H]1[C@@H](c2ccnc(C(F)(F)F)c2)[C@H]2O[C@@H]1C[C@@H]2O` (racemic) [Example 66, rac-(1R,2R,3S,4R,5S)-5-hydroxy-N-(4-(trifluoromethyl)phenyl)-3-(2-(trifluoromethyl)pyridin-4-yl)-7-oxabicyclo[2.2.1]heptane-2-carboxamide]: where the note is “Chondrocyte, 288 h”, the IC50 turned out to be 15 µM and the Emax worked out at 66%.

Regarding `Cn1nc(C(F)(F)F)cc1[C@H]1[C@H]2O[C@H](C[C@@H]2O)[C@@H]1C(=O)Nc1cc(C(F)(F)F)ccc1C#N` (racemic) [Example 72, rac-(1R,2R,3S,4R,5S)—N-(2-cyano-5-(trifluoromethyl)phenyl)-5-hydroxy-3-(1-methyl-3-(trifluoromethyl)-1H-pyrazol-5-yl)-7-oxabicyclo[2.2.1]heptane-2-carboxamide], where the note is “Chondrocyte, 288 h”, the IC50 was 2.1 µM and the Emax came to 72%.

As for `COc1ccc(NC(=O)[C@@H]2[C@@H](c3cn(C)nc3C(F)(F)F)[C@H]3O[C@@H]2C[C@@H]3O)cc1C(F)(F)F` (racemic) [Example 31, rac-(1R,2R,3S,4R,5S)-5-hydroxy-N-(4-methoxy-3-(trifluoromethyl)phenyl)-3-(1-methyl-3-(trifluoromethyl)-1H-pyrazol-4-yl)-7-oxabicyclo[2.2.1]heptane-2-carboxamide], under “Chondrocyte, 288 h”, the IC50 is 3.1 µM and the Emax was found to be 102%.

As to `Cn1cc([C@H]2[C@H]3O[C@H](C[C@@H]3O)[C@@H]2C(=O)Nc2cc(C(F)(F)F)cc(C3CC3)n2)c(C(F)(F)F)n1` (racemic) [Example 40, rac-(1R,2R,3S,4R,5S)—N-(6-cyclopropyl-4-(trifluoromethyl)pyridin-2-yl)-5-hydroxy-3-(1-methyl-3-(trifluoromethyl)-1H-pyrazol-4-yl)-7-oxabicyclo[2.2.1]heptane-2-carboxamide], for the setting “Chondrocyte, 288 h”, the IC50 was 10 µM and the Emax came to 83%.

As usually defined, the IC50 is the concentration that inhibits the measured activity by half.

The values above are taken from patent US12257243B2, “5-hydroxy-7-oxabicyclo[2.2.1]heptane-2-carboxamide derivatives for inducing chondrogenesis for treating joint damage” (NOVARTIS AG, priority 2018, dated 2025).
